Test results reported in patent US5612480A, “2-chloro and 2-bromo derivatives of 1,5-iminosugars” (priority 1995, dated 1997).
≈ marks a conversion by molar mass, not a printed value. Read-outs that look alike come from different tables or passages of the source.

Legend:
[1] = tested on: β-Glucosidase (almond); assay: Beta-glucosidase (almond) inhibition assay, pH 7.4; format: biochemical
Experimental: (§1) Yeast alpha-glucosidase and almond beta-glucosidase activities were measured by a modification of the method of Evans, et al., Phytochemistry 22, 768-770 (1983). The modifications included (1) assay of activities at pH 7.4 in HEPES (N-2-hydroxyethylpiperazine-N'-2-ethanesulfonic acid) buffer, 2) measurement in 96 well microtiter plates and (3) inclusion of 10% DMSO in control and test samples.
(§2) The release of p-nitrophenol from the substrate p-nitrophenylglycoside was measured spectrophotometrically in the presence and absence of test compound. Each assay included a known inhibitor of the enzyme as a standard. IC50 values were determined for compounds which inhibited the enzymes more than 50% at a 1 millimolar concentration.
(§3) To 100 μl 50 mM HEPES buffer, pH 7.4, in a microtiter plate, add 20 μl test compound in DMSO (DMSO alone in control), 40 μl (0.136 units) beta-glucosidase (Sigma) in HEPES buffer and pre-incubate at room temperature for 15 minutes. Add 40 μl 1.25 mM p-nitrophenyl-beta-D-glucopyranoside in HEPES buffer, as substrate and monitor absorbance change at 405 nm in a Biotek EIA Autoreader. Absorption change was measured at 15 to 25 minutes (reaction is linear for at least 30 minutes). Each sample was tested in triplicate. IC50 values were determined from the linear portion of the log concentration vs % inhibition curve obtained from a minimum of 3 points. Castanospermine was used as standard inhibitor.

[2] = tested on: β-Glucosidase (almond); assay: Beta-glucosidase (almond) inhibitor assay, pH 4.8; format: biochemical
Experimental: as §1, §2
To 100 μl 50 mM sodium citrate buffer, pH 4.8, in a microtiter plate, add 15 μl test compound in DMSO (DMSO alone in control), 20 μl (0.017 units) beta-glucosidase (Sigma) in citrate buffer and pre-incubate at room temperature for 15 minutes. Add 25 μl 2.50 mM p-nitrophenyl-beta-D-glucopyranoside in citrate buffer, as substrate. Incubate at room temperature 20 minutes (reaction is linear for at least 30 minutes). Add 50 μl 0.4 M NaOH. Read absorption change at 405 nm in a Biotek EIA Autoreader. Each sample was tested in triplicate. IC50 values were determined from the linear portion of the log concentration vs % inhibition curve obtained from a minimum of 3 points. Castanospermine was used as standard inhibitor.

[3] = tested on: HIV-1; assay: Anti-HIV activity: inhibition of HIV-1 induced cytopathic effect in CEM cells, MTT (Method B); format: cell-based, strain HTVL-IIIB; settings: Human immunodeficiency virus 1, CCRF-CEM, CEM cells, Table 2
Experimental: Inhibitory activity against HIV-1 was shown by tests involving plating of susceptible human host cells which are syncytium-sensitive with and without virus in microculture plates, adding various concentrations of the test compound, incubating the plates for 7 to 9 days (during which time infected, non-drug treated control cells are largely or totally destroyed by the virus), and then determining the remaining number of viable cells with a colorometric endpoint.
(§4) Various illustrative compounds synthesized above were tested for inhibition of visna virus in vitro in a plaque reduction assay (Method A) or for inhibition of HIV-1 in a test which measured reduction of cyto-pathogenic effect in virus-infected syncytium-sensitive Leu-3a-positive CEM cells grown in tissue culture (Method B) as follows:
Tissue culture plates were incubated at 37° C. in a humidified, 5% CO2 atmosphere and observed microscopically for toxicity and/or cytopathogenic effect (CPE). At 1 hour prior to infection each test article was prepared from the frozen stock, and a 20 μl volume of each dilution (prepared as a 10 X concentration) was added to the appropriate wells of both infected and uninfected cells.
Assays were done in 96-well tissue culture plates. CEM cells were treated with polybrene at a concentration of 2 μg/ml, and an 80 μl volume of cells (1×10^4 cells) was dispensed into each well. A 100 μl volume of each test article dilution (prepared as a 2 X concentration) was added to 5 wells of cells, and the cells were incubated at 37° C. for 1 hour. A frozen culture of HIV-1, strain HTVL-IIIB, was diluted in culture medium to a concentration of 5×10^4 TCID50 per ml, and a 20 μl volume (containing 10^3 TCID50 of virus) was added to 3 of the wells for each test article concentration. […] A 20 μl volume of normal culture medium was added to the remaining wells to allow evaluation of cytotoxicity. Each plate contained 6 wells of untreated, uninfected, cell control samples and 6 wells of untreated, infected, virus control samples.
On the 9th day post-infection, the cells in each well were resuspended and a 100 μl sample of each cell suspension was removed for use in an MTT assay. A 20 μl volume of a 5 mg/ml solution of 3-(4,5-dimethylthiazol-2-yl)-2,5-diphenyltetrazolium bromide (MTT) was added to each 100 μl cell suspension, and the cells were incubated at 37° C. in 5% CO2 for 4 hours. […] A 100 μl volume of a solution of 10% sodium dodecyl sulfate in 0.01 N hydrochloric acid was added to each sample, and the samples were incubated overnight. The absorbance at 590 nm was determined for each sample using a Molecular Devices Vmax microplate reader. This assay detects drug-induced suppression of viral CPE, as well as drug cytotoxicity, by measuring the generation of MTT-formazan by surviving cells.

[4] = biological target: T1, α-Glucosidase (yeast) (Saccharomyces cerevisiae, UniProt P53341); assay: Alpha-glucosidase (yeast) inhibition assay, pH 7.4; format: biochemical
T1 construct: purchased Sigma
Experimental: as §1, §2
as §3, with “(0.013” for “(0.136”, “yeast alpha-glucosidase” for “beta-glucosidase”, “p-nitrophenyl-alpha-D-glucopyranoside (Sigma)” for “p-nitrophenyl-beta-D-glucopyranoside”, “substrate,” for “substrate”, “was” for “is”, “Deoxynojirimycin” for “Castanospermine”

[5] = tested on: visna virus; assay: Inhibition of visna virus growth, plaque reduction assay in sheep choroid plexus (SCP) cells (Method A); format: cell-based
From the text: Inhibitory activity against visna virus was shown by a conventional plaque reduction assay. Visna virus, a lentivirus genetically very similar to the AIDS virus, is pathogenic for sheep and goats. See Sonigo et al., Cell 42, 369-382 (1985); Haase, Nature 322, 130-136 (1986). Inhibition of visna virus replication in vitro as a useful model for HIV and its inhibition by test compounds has been described by Frank et al., Antimicrobial Agents and Chemotherapy 31 (9), 1369-1374 (1987).
as §4
Sheep choroid plexus (SCP) cells were obtained from American Type Culture Collection (ATCC) catalogue number CRL 1700 and were routinely passaged in vitro in Dulbecco's Modified Eagles (DME) medium supplemented with 20% fetal bovine serum (FBS). SCP cells were passaged once per week at a 1:2 or 1:3 split ratio. Visna was titrated by plaque assay in six-well plates. Virus pools were stored at -70° C.
SCP cells were cultured in 6-well plates to confluence. Wells were washed two times with serum free Minimal Essential Medium (MEM) to remove FBS. 0.2 ml of virus was added per well in MEM supplemented with 4 mM glutamine and gentamycin. After 1 hour adsorption, the virus was aspirated from each well. The appropriate concentration of each compound in 5 ml of Medium 199 (M-199) supplemented with 2% lamb serum, 4 mM glutamine, 0.5% agarose and gentamycin was added to each well. Cultures were incubated at 37° C. in a humidified 5% CO2 incubator for 3-4 weeks. To terminate the test, cultures were fixed in 10% formalin, the agar removed, the monolayers stained with 1% crystal violet and plaques counted. Each compound concentration was run in triplicate. […] 0 is no toxicity observed while 4 is total lysing of the cell monolayer. […]
Control wells without virus were completed to determine the toxicity of compounds.

[6] = pH 7.4, read-out: Percent inhibition of α-glucosidase (yeast)

T1 sequence (P53341 whole entry): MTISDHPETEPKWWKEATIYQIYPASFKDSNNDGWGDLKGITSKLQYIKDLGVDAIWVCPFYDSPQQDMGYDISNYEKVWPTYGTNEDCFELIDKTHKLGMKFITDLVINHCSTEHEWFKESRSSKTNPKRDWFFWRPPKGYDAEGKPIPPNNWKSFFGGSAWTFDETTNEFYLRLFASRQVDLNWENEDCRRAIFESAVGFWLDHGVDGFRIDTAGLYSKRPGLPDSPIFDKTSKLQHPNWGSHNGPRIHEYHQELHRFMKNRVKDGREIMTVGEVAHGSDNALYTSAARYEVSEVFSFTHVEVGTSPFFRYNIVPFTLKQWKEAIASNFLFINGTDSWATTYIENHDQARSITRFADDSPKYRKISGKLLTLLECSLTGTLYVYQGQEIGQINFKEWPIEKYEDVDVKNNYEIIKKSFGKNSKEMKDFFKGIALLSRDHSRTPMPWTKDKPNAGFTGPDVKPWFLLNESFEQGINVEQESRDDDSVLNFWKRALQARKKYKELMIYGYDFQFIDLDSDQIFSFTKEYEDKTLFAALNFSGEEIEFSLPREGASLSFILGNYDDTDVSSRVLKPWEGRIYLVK

| Compound | Percent inhibition of β-glucosidase (almond) ([1]; 100 μM) [%] | Percent inhibition of β-glucosidase (almond) ([1]; 1000 μM) [%] | Percent inhibition of β-glucosidase (almond) ([2]; 100 μM) [%] | Percent inhibition of β-glucosidase (almond) ([2]; 1000 μM) [%] | inhibition at 500 µg/mL ([3]; 500 μg/mL, read-out: Anti-HIV activity, % inhibition of virus induced cytopathic effect) [%] | inhibition at 100 µM ([4]; 100 μM, pH 7.4, read-out: Percent inhibition of α-glucosidase (yeast)) [%] | inhibition at 1000 µM ([4]; 1000 μM, pH 7.4, read-out: Percent inhibition of α-glucosidase (yeast)) [%] | EC50 ([3]; read-out: Anti-HIV activity, inhibition of virus induced cytopathic effect, EC50) [µg/mL] | % inhibition of visna virus growth ([5]; 0.001 mM) [%] | % inhibition of visna virus growth ([5]; 0.01 mM) [%] | % inhibition of visna virus growth ([5]; 0.1 mM) [%] | % inhibition of visna virus growth ([5]; 1.0 mM) [%] | inhibition at 1 µM [4, 6] [%] | inhibition at 10 µM [4, 6] [%] | inhibition at 100 µM [4, 6] [%] | inhibition at 1000 µM [4, 6] [%] |
| --- | --- | --- | --- | --- | --- | --- | --- | --- | --- | --- | --- | --- | --- | --- | --- | --- |
| CCCCN1[C@H](CO)[C@@H](O)[C@H](O)[C@H]1CN=[N+]=[N-] [Example 47, 1-Azido-2,5-(butylimino)-1,2,5-trideoxy-D-mannitol] | -4.1 | 6.7 | 11.2 | 32.6 | 36 | 22.7 | 24.8 | – | – | – | – | – | – | – | – | – |
| CCCCCCN1C[C@H](Cl)[C@@H](O)[C@H](O)[C@H]1CO [Example 28, 2-Chloro-1,2,5-trideoxy-1,5(hexylimino)-D-glucitol] | 62.9 | 90 | 43.7 | 84 | – | – | – | 11 (≈ 41.4 µM) | 6 | 61 | 100 | 100 | 4 | 37.6 | 82.9 | 95.5 |
| OC[C@@H]1[C@@H](O)[C@H](O)[C@@H](Cl)CN1CCCc1ccccc1 [Example 30, 2-Chloro-1,2,5-trideoxy-1,5-(3-phenyl)propylimino-D-glucitol] | 66.2 | 92.5 | 47.6 | 84.7 | – | – | – | – | 20 | 57 | 97 | 100 | 4.6 | 46.4 | 87.3 | 97.5 |
